Data published in ChEMBL document CHEMBL4359858, “Potently inhibiting cancer cell migration with novel 3H-pyrazolo[4,3-f]quinoline boronic acid ROCK inhibitors” (Eur J Med Chem, 2019).
Active and inactive are the calls of the source. The calls are words filed in the database; no cut-off is given here.

Tests used:
[1] = molecular target: T1, Rho-associated protein kinase 2 (Homo sapiens, UniProt O75116); test: Inhibition of active ROCK2 (R11-11G) (unknown origin) at 100 nM using S6K as substrate incubated for 3 hrs by ADP-Glo kinase assay relative to control
Target sequence in this assay (O75116 whole entry, looked up): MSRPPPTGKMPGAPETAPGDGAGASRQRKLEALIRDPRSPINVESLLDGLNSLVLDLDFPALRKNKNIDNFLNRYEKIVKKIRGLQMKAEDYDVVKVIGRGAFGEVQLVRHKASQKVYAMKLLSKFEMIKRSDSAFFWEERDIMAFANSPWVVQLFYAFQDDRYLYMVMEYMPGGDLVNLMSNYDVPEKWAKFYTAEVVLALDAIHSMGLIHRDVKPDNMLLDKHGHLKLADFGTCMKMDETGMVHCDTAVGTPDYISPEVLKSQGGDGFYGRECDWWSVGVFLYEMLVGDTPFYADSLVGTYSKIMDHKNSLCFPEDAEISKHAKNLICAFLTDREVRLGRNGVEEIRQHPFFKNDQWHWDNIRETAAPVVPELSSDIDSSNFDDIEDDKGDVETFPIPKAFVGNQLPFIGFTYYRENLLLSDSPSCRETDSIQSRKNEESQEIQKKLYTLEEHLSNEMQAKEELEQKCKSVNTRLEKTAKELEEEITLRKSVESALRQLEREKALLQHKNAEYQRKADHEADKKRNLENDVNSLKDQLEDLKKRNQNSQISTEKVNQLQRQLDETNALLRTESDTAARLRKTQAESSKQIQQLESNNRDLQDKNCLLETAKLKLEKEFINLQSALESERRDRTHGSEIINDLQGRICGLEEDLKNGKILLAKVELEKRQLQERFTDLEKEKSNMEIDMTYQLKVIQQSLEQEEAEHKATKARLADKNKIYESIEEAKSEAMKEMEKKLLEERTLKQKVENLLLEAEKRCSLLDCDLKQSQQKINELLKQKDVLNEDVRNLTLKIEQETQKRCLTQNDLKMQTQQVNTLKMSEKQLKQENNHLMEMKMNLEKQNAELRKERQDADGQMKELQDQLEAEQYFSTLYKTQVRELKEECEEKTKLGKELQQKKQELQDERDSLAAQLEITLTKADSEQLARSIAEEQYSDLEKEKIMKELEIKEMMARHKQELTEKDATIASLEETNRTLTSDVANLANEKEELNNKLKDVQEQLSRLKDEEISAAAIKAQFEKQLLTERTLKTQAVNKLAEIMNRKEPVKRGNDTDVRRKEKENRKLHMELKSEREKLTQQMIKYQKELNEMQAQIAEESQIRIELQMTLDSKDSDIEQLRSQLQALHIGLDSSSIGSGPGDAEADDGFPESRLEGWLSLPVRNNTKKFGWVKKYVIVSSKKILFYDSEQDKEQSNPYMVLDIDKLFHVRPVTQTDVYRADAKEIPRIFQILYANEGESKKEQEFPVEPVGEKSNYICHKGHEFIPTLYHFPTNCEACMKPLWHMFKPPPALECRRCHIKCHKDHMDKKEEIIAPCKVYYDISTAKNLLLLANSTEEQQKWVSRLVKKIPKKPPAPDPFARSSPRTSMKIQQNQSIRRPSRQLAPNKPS

[2] = system: MDA-MB-231; test: Cytotoxicity against human MDA-MB-231 cells assessed as reduction in cell viability at 5 uM incubated for 12 hrs by CellTiter-Blue assay; format: cell-based; conditions: mda-mb-231, 12 h
[3] = system: MDA-MB-231; test: Inhibition of cell migration of human MDA-MB-231 cells at 1 uM incubated for 24 hrs; format: functional, cell-based
[4] = molecular target: T1, Rho-associated protein kinase 2; test: Inhibition of human ROCK2 using KEAKEKRQEQIAKRRRLSSLRASTSKSGGSQK as substrate incubated for 20 mins in presence of [gamma33P]ATP by filter binding method
Target sequence in this assay (O75116 whole entry): as the sequence (O75116 whole entry, looked up) above

[5] = molecular target: T2, Rho-associated protein kinase 1 (Homo sapiens, UniProt Q13464); test: Inhibition of human ROCK1 using KEAKEKRQEQIAKRRRLSSLRASTSKSGGSQK as substrate incubated for 20 mins in presence of [gamma33P]ATP by filter binding method
T2 sequence (Q13464 whole entry): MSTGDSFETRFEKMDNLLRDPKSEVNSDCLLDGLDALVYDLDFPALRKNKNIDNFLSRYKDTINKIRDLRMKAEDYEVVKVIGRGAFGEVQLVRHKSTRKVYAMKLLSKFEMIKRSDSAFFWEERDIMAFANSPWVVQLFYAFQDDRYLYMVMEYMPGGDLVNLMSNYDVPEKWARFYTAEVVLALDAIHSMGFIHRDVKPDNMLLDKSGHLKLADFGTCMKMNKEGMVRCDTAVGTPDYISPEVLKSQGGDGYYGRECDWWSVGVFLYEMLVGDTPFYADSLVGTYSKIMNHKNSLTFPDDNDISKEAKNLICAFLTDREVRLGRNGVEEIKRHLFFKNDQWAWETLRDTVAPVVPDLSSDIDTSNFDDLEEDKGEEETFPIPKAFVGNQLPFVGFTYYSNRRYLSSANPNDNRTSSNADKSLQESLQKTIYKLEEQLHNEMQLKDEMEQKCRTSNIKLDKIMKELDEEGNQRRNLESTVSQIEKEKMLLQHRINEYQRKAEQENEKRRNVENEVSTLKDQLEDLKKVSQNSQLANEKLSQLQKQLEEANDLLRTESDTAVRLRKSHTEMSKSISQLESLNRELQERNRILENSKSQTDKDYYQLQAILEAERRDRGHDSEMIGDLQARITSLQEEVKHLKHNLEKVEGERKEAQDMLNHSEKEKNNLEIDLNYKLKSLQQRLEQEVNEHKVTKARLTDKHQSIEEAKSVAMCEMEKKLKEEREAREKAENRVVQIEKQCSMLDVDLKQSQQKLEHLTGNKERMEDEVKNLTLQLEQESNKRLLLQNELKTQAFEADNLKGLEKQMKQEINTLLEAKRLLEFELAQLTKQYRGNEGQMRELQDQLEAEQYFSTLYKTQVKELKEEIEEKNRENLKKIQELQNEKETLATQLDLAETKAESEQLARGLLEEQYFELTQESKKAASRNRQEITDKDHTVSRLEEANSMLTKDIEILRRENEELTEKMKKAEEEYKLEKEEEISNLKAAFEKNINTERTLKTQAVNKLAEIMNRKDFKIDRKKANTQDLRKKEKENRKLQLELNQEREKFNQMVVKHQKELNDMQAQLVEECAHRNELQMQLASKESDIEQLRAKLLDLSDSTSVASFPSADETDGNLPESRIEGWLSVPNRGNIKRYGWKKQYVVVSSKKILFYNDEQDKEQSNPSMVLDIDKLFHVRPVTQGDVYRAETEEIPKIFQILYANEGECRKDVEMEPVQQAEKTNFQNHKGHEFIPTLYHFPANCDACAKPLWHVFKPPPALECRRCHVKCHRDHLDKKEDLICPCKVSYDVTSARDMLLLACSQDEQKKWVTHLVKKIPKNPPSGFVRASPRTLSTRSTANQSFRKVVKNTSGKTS

[6] = Cytotoxicity against human MDA-MB-231 cells assessed as cell viability at 10 uM incubated for 12 hrs by CellTiter-Blue assay relative to control; format: cell-based; conditions: read-out: Activity
[7] = Cytotoxicity against human MDA-MB-231 cells assessed as cell viability at 10 uM incubated for 24 hrs by CellTiter-Blue assay relative to control; format: cell-based; conditions: read-out: Activity
[8] = molecular target: T1, Rho-associated protein kinase 2; test: Binding affinity to ROCK2 (unknown origin) incubated for 1 hr by qPCR analysis
Target sequence in this assay (O75116 whole entry): as the sequence (O75116 whole entry, looked up) above

[9] = molecular target: T2, Rho-associated protein kinase 1; test: Binding affinity to ROCK1 (unknown origin) incubated for 1 hrs by qPCR analysis
[10] = molecular target: T1, Rho-associated protein kinase 2; test: Inhibition of recombinant human GST-tagged ROCK2 (1 to 552 residues) using myelin basic protein as substrate incubated for 30 mins by ADP-Glo assay
Target sequence in this assay (O75116 whole entry): as the sequence (O75116 whole entry, looked up) above

[11] = molecular target: T2, Rho-associated protein kinase 1; test: Inhibition of recombinant human GST-tagged ROCK1 (1 to 535 residues) using myelin basic protein as substrate incubated for 30 mins by ADP-Glo assay

SMILES | inhibition [1] | also measured
COc1c(B(O)O)cccc1-c1cc(-c2cc(F)cc(F)c2)c2c(ccc3[nH]ncc32)n1 | 10 to 15% | –
Cc1ccc(C(=O)OCc2ccc([C@@H](CN)C(=O)Nc3ccc4cnccc4c3)cc2)c(C)c1 | – | Activity [2]: Toxic; inhibition [3]: inactive
OB(O)c1ccc(-c2nc3ccc4[nH]ncc4c3c3c2CCCC3)cc1 | Active | –
COc1c(B(O)O)cccc1-c1nc2ccc3[nH]ncc3c2cc1-c1ccc(Cl)cc1 | Active | –
OB(O)c1ccc(-c2nc3ccc4[nH]ncc4c3c3c2CCCC3)o1 | Active | –
OB(O)c1cccc(-c2nc3ccc4[nH]ncc4c3cc2-c2ccccc2)c1F | Active | –
COc1c(B(O)O)cccc1-c1nc2ccc3[nH]ncc3c2c2c1CCC2 | 59% | IC50 [4]: 0.51 nM; inhibition [3]: Active; IC50 [5]: 1.22 nM; viability at 12 h, 10 µM [6]: 75 to 80%; viability at 24 h, 10 µM [7]: 60 to 63%; Kd [8]: 1.2 to 1.3 nM; Kd [9]: 1.5 to 1.8 nM
c1nc2ccc3[nH]ncc3c2c2c1CCCC2 | 10 to 15% | –
COc1nc(N[C@H]2CC[C@H](N)CC2)c(F)cc1C(N)=O | – | IC50 [10]: 7.8 nM; IC50 [11]: 10 nM
OB(O)c1cccc(-c2nc3ccc4[nH]ncc4c3c3c2CCCC3)c1 | Active | –
COc1c(B(O)O)cccc1-c1cc(-c2ccc(F)c(Cl)c2)c2c(ccc3[nH]ncc32)n1 | 10 to 15% | –
OB(O)c1csc(-c2nc3ccc4[nH]ncc4c3c3c2CCCC3)c1 | Active | –
OB(O)c1cccc(-c2nc3ccc4[nH]ncc4c3c3c2CCCC3)c1F | Active | –
c1cc(-c2nc3ccc4[nH]ncc4c3c3c2CCCC3)cs1 | Active | –

Second part, led by results:

inhibition [1] | SMILES | also measured
Active | c1csc(-c2nc3ccc4[nH]ncc4c3c3c2CCCC3)c1 | –
Active | OB(O)c1ccc(-c2nc3ccc4[nH]ncc4c3c3c2CCCC3)cc1F | –
10 to 15% | OB(O)c1ccc(-c2cc(-c3ccc(F)c(Cl)c3)c3c(ccc4[nH]ncc43)n2)cc1F | –
Active | COc1c(B(O)O)cccc1-c1nc2ccc3[nH]ncc3c2cc1-c1ccncc1 | –
32% | COc1c(B(O)O)cccc1-c1nc2ccc3[nH]nc(C)c3c2c2c1CCC2 | –
Active | COc1c(B(O)O)cccc1-c1nc2ccc3[nH]ncc3c2cc1C | –
Active | OB(O)c1cccc(-c2nc3ccc4[nH]ncc4c3cc2-c2ccc(F)c(Cl)c2)c1F | –
Active | COc1ccc(-c2nc3ccc4[nH]ncc4c3c3c2CCCC3)cc1B(O)O | –
Active | Cc1n[nH]c2ccc3nc(-c4sccc4B(O)O)c4c(c3c12)CCC4 | –
